PubChem BioAssay (NCI)
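96-well plates; 48 h exposure; 5 concentrations. Endpoints by linear interpolation between flanking doses. Not reached: highest tested concentration assigned. At the TGI there is no net growth.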

Tests used:
Assay in all cases: NCI anticancer screen, dose series, 48 h
NCI/ADR-RES ovarian = system: NCI/ADR-RES ovarian
A498 renal = system: A498 renal
DU-145 prostate = system: DU-145 prostate
SK-MEL-2 melanoma = system: SK-MEL-2 melanoma
HOP-62 NSCLC = system: HOP-62 NSCLC
KM12 colon = system: KM12 colon
BT-549 breast = system: BT-549 breast
M14 melanoma = system: M14 melanoma
CAKI-1 renal = system: CAKI-1 renal
SK-MEL-5 melanoma = system: SK-MEL-5 melanoma
SK-OV-3 ovarian = system: SK-OV-3 ovarian
SW-620 colon = system: SW-620 colon
NCI-H522 lung = system: NCI-H522 lung
SF-539 CNS = system: SF-539 CNS
HCT-15 colon = system: HCT-15 colon
OVCAR-4 ovarian = system: OVCAR-4 ovarian
OVCAR-8 ovarian = system: OVCAR-8 ovarian
MCF7 breast = system: MCF7 breast
SF-295 CNS = system: SF-295 CNS
K-562 leukemia = system: K-562 leukemia

Compound: Cc1cc(C)c(C(=O)c2nnc3ccccc3c2N)c(C)c1
- TGI (NCI/ADR-RES ovarian): 74.2 µM
- TGI (A498 renal): > 100 µM
- TGI (DU-145 prostate): 84 µM
- TGI (SK-MEL-2 melanoma): 31.9 µM
- TGI (HOP-62 NSCLC): 32.9 µM
- TGI (KM12 colon): 42 µM
- TGI (BT-549 breast): > 100 µM
- TGI (M14 melanoma): 34 µM
- TGI (CAKI-1 renal): 75.9 µM
- TGI (SK-MEL-5 melanoma): 26.8 µM
- TGI (SK-OV-3 ovarian): > 100 µM
- TGI (SW-620 colon): > 100 µM

Compound: CC(O)CCCCC(O)CCC[C@H](O)[C@H]1CCC([C@H]2CCC([C@@H](O)CCCCCCCCCCCCC3=C[C@H](C)OC3=O)O2)O1 (some centres not stated)
- TGI (NCI-H522 lung): 16.7 µM
- TGI (NCI/ADR-RES ovarian): 15.4 µM
- TGI (SF-539 CNS): 20.6 µM
- TGI (DU-145 prostate): 23.2 µM
- TGI (SK-MEL-2 melanoma): 18.3 µM
- TGI (HOP-62 NSCLC): 20.7 µM
- TGI (HCT-15 colon): 25.5 µM
- TGI (KM12 colon): 16.2 µM
- TGI (BT-549 breast): 21.3 µM
- TGI (M14 melanoma): 21.4 µM
- TGI (CAKI-1 renal): 21.1 µM
- TGI (SK-MEL-5 melanoma): 17.2 µM
- TGI (OVCAR-4 ovarian): 25.9 µM
- TGI (SK-OV-3 ovarian): 22.1 µM
- TGI (OVCAR-8 ovarian): 21.7 µM
- TGI (MCF7 breast): 16.3 µM
- TGI (SF-295 CNS): 18.7 µM
- TGI (SW-620 colon): 23.4 µM

Compound: COc1ccc(-n2cnn3c(=O)c4cn[nH]c4nc23)cc1
- TGI (NCI-H522 lung): > 10 µM
- TGI (SF-539 CNS): > 10 µM
- TGI (DU-145 prostate): > 10 µM
- TGI (KM12 colon): > 10 µM
- TGI (BT-549 breast): > 10 µM
- TGI (M14 melanoma): > 10 µM
- TGI (SK-MEL-5 melanoma): > 10 µM
- TGI (OVCAR-4 ovarian): > 10 µM
- TGI (SK-OV-3 ovarian): > 10 µM
- TGI (OVCAR-8 ovarian): > 10 µM
- TGI (MCF7 breast): > 10 µM
- TGI (SF-295 CNS): > 10 µM
- TGI (K-562 leukemia): > 10 µM

Compound: COc1ccc(C2OC(N)=C(C#N)C3=C2CCCC3C)cc1OC (configuration not stated)
- TGI (NCI/ADR-RES ovarian): > 100 µM
- TGI (SF-539 CNS): > 100 µM
- TGI (A498 renal): > 100 µM
- TGI (DU-145 prostate): > 100 µM
- TGI (SK-MEL-2 melanoma): > 100 µM
- TGI (HCT-15 colon): > 100 µM
- TGI (KM12 colon): > 100 µM
- TGI (BT-549 breast): > 100 µM
- TGI (M14 melanoma): > 100 µM
- TGI (CAKI-1 renal): > 100 µM
- TGI (SK-MEL-5 melanoma): > 100 µM
- TGI (SK-OV-3 ovarian): > 100 µM
- TGI (OVCAR-8 ovarian): > 100 µM
- TGI (MCF7 breast): > 100 µM
- TGI (SF-295 CNS): > 100 µM
- TGI (K-562 leukemia): > 100 µM
- TGI (SW-620 colon): > 100 µM

Compound: Cc1ccccc1N/C(=C(/C(Cl)=C(Cl)Cl)[N+](=O)[O-])n1nnc2ccccc21
- TGI (NCI/ADR-RES ovarian): 49.5 µM
- TGI (SF-539 CNS): 39.1 µM
- TGI (A498 renal): 40.4 µM
- TGI (DU-145 prostate): 62.2 µM
- TGI (SK-MEL-2 melanoma): 33 µM
- TGI (HOP-62 NSCLC): 30.6 µM
- TGI (HCT-15 colon): 31.6 µM
- TGI (KM12 colon): 29.4 µM
- TGI (BT-549 breast): 27.5 µM
- TGI (M14 melanoma): 64.9 µM
- TGI (CAKI-1 renal): 34.9 µM
- TGI (OVCAR-4 ovarian): 34 µM
- TGI (SK-OV-3 ovarian): 40.7 µM
- TGI (MCF7 breast): 86.5 µM
- TGI (SF-295 CNS): 28.8 µM
- TGI (K-562 leukemia): > 100 µM
- TGI (SW-620 colon): 29.4 µM

Compound: CC1(C)CC(=O)C(C=NC(=O)c2ccncc2)=C(O)C1
- TGI (NCI-H522 lung): > 100 µM
- TGI (NCI/ADR-RES ovarian): > 100 µM
- TGI (SF-539 CNS): > 100 µM
- TGI (DU-145 prostate): > 100 µM
- TGI (SK-MEL-2 melanoma): > 100 µM
- TGI (HOP-62 NSCLC): > 100 µM
- TGI (HCT-15 colon): > 100 µM
- TGI (KM12 colon): > 100 µM
- TGI (BT-549 breast): > 100 µM
- TGI (M14 melanoma): > 100 µM
- TGI (CAKI-1 renal): > 100 µM
- TGI (SK-MEL-5 melanoma): > 100 µM
- TGI (OVCAR-4 ovarian): > 100 µM
- TGI (SK-OV-3 ovarian): > 100 µM
- TGI (OVCAR-8 ovarian): > 100 µM
- TGI (MCF7 breast): > 100 µM
- TGI (SF-295 CNS): > 100 µM
- TGI (SW-620 colon): > 100 µM

Compound: COc1ccc2[nH]c3c(c2c1)CC(=S)N1CCCC(CC3=O)C1 (configuration not stated)
- TGI (NCI/ADR-RES ovarian): > 100 µM
- TGI (A498 renal): > 100 µM
- TGI (DU-145 prostate): > 100 µM
- TGI (SK-MEL-2 melanoma): 81.2 µM
- TGI (HOP-62 NSCLC): > 100 µM
- TGI (HCT-15 colon): > 100 µM
- TGI (KM12 colon): > 100 µM
- TGI (BT-549 breast): > 100 µM
- TGI (M14 melanoma): > 100 µM
- TGI (CAKI-1 renal): > 100 µM
- TGI (SK-MEL-5 melanoma): > 100 µM
- TGI (OVCAR-4 ovarian): > 100 µM
- TGI (SK-OV-3 ovarian): > 100 µM
- TGI (OVCAR-8 ovarian): > 100 µM
- TGI (MCF7 breast): > 100 µM
- TGI (SF-295 CNS): > 100 µM
- TGI (SW-620 colon): > 100 µM
